Data from patent publication US7786142B2, “Heterocyclic compounds as pSTAT3/IL-6 inhibitors” (Orchid Research Laboratories, Ltd., priority 2005, dated 2010).

What was measured:
Type in all cases: cell-based
[1] = system: NCIH460, HCT116, MDAMB-231/U 251; assay: Anti-cancer screen, mean GI50 over the cell lines
Description: (§1) Experimental drugs are screened for anti-cancer activity in three cell lines for their GI50, TGI and LC50 values (using five concentrations for each compound). The cell lines are maintained in DMEM containing 10% fetal bovine serum. 96 well micro titer plates are inoculated with cells in 100 μL for 24 hours at 37° C., 5% CO2, 95% air and 100% relative humidity. 5000 HCT116 cells/well, 5000 NCIH460 cells/well and 5000 U251 cells/well are plated. A separate plate with these cell lines is also inoculated to determine cell viability before the addition of the compounds (T0), (See Table I).
(§2) Following 24-hours incubation, experimental drugs are added to the 96 well plates. Each plate contains one of the above cell lines and the following in triplicate: five different concentrations (0.01, 0.1, 1, 10 and 100 μM) of four different compounds, appropriate dilutions of a cytotoxic standard and control (untreated) wells. Compounds are dissolved in DMSO to make 20 mM stock solutions on the day of drug addition and frozen at −20° C. Serial dilutions of these 20 mM stock solutions are made in complete growth medium such that 100 μL of these drug solutions in medium, of final concentrations equaling 0.01, 0.1, 1, 10 and 100 μM can be added to the cells in triplicate. Standard drugs whose anti-cancer activity has been well documented and which are regularly used are Doxorubicin and SAHA, (See Table I).
(§3) For T0 measurement, 24 hours after seeding the cells, 10 μL of 3-(4,5-Dimethyl-2-thiazolyl)-2,5-diphenyl-2H-tetrazolium (MTT) solution per well is added and incubation carried out for 3 hours at 37° C., 5% CO2, 95% air and 100% relative humidity, protected from light. Cells incubated with compounds for 48 hours are treated similarly except with the addition of 20 μL MTT solution per well and a subsequent incubation under the same conditions. After 3 hours of MTT incubation, well contents are aspirated carefully followed by addition of 150 μL DMSO per well. Plates are agitated to ensure solution of the formazan crystals in DMSO and absorbance read at 570 nm, (See Table I).
(§4) Percent growth is calculated for each compound's concentration relative to the control and zero measurement wells (T0; viability right before compound addition). If a test well's O.D. value is greater than the T0 measurement for that cell line % Growth=(test−zero)/(control−zero)×100

NCIH460 cells = assay: Anti-cancer screen (MTT), NCIH460 cells; conditions: Homo sapiens, NCI-H460, NCIH460, 48 hours, concentrations tested 0.01-100 μM; for CC50: read-out: LC50 (the source's name)
Description: as §1, §2, §3, §4

MDAMB-231/U 251 = assay: Anti-cancer screen (MTT), MDAMB-231/U 251 cells; conditions: MDAMB-231/U 251, 48 hours, concentrations tested 0.01-100 μM; for CC50: read-out: LC50 (the source's name)
Description: as §1, §2, §3, §4

HCT116 cells = assay: Anti-cancer screen (MTT), HCT116 cells; conditions: Homo sapiens, HCT-116, HCT116, 48 hours, concentrations tested 0.01-100 μM
Description: as §1, §2, §3, §4

OC(COc1cccc2[nH]c3ccccc3c12)CN1CCCC1 (centres unmarked) [Example 6, 1-(9H-carbazol-4-yloxy)-3-pyrrolidin-1-ylpropan-2-ol]
GI50 [1]: 10.5 µM
GI50 (NCIH460 cells): 10 µM
IC (TGI) (NCIH460 cells): 42 µM
CC50 (NCIH460 cells): 75 µM
GI50 (MDAMB-231/U 251): > 100 µM
IC (TGI) (MDAMB-231/U 251): > 100 µM
CC50 (MDAMB-231/U 251): > 100 µM
GI50 (HCT116 cells): > 100 µM
IC (TGI) (HCT116 cells): > 100 µM
LC50 (concentration for 50% net cell kill relative to T0) (HCT116 cells): > 100 µM

COc1cc(CN2CCN(CC(O)COc3cccc4[nH]c5ccccc5c34)CC2)cc(OC)c1 (centres unmarked) [Example 30, 1-(9H-carbazol-4-yloxy)-3-[4-(3,5-dimethoxybenzyl)piperazin-1-yl]propan-2-ol]
GI50 [1]: 19.2 µM
GI50 (NCIH460 cells): 30 µM
IC (TGI) (NCIH460 cells): 60 µM
CC50 (NCIH460 cells): 90 µM
GI50 (MDAMB-231/U 251): 2.5 µM
IC (TGI) (MDAMB-231/U 251): 9 µM
CC50 (MDAMB-231/U 251): 70 µM
GI50 (HCT116 cells): 25 µM
IC (TGI) (HCT116 cells): 72 µM
LC50 (concentration for 50% net cell kill relative to T0) (HCT116 cells): 84 µM

O=[N+]([O-])c1ccc(CN2CCN(CC(O)COc3cccc4[nH]c5ccccc5c34)CC2)o1 (centres unmarked) [Example 26, 1-(9H-carbazol-4-yloxy)-3-{4-[(5-nitro-2-furyl)methyl]piperazin-1-yl}propan-2-ol]
GI50 [1]: 20.7 µM
GI50 (NCIH460 cells): 2 µM
IC (TGI) (NCIH460 cells): 22 µM
CC50 (NCIH460 cells): 70 µM
GI50 (MDAMB-231/U 251): 30 µM
IC (TGI) (MDAMB-231/U 251): 85 µM
CC50 (MDAMB-231/U 251): > 100 µM
GI50 (HCT116 cells): 30 µM
IC (TGI) (HCT116 cells): 48 µM
LC50 (concentration for 50% net cell kill relative to T0) (HCT116 cells): 68 µM

Cc1cccc2sc(NC(=O)CN3CCN(CC(O)COc4cccc5[nH]c6ccccc6c45)CC3)nc12 (centres unmarked) [Example 59, 2-{4-[3-(9H-carbazol-4-yloxy)-2-hydroxypropyl]-piperazin-1-yl}-N-(4-methyl-1,3-benzothiazol-2-yl)acetamide]
GI50 [1]: 28.2 µM
GI50 (NCIH460 cells): 9.5 µM
IC (TGI) (NCIH460 cells): > 100 µM
CC50 (NCIH460 cells): > 100 µM
GI50 (MDAMB-231/U 251): 47 µM
IC (TGI) (MDAMB-231/U 251): > 100 µM
CC50 (MDAMB-231/U 251): > 100 µM
GI50 (HCT116 cells): > 100 µM
IC (TGI) (HCT116 cells): > 100 µM
LC50 (concentration for 50% net cell kill relative to T0) (HCT116 cells): > 100 µM

OC(COc1cccc2[nH]c3ccccc3c12)CN1CCc2sccc2C1 (centres unmarked) [Example 4, 1-(9H-carbazol-4-yloxy)-3-(6,7-dihydrothieno[3,2-c]pyridin-5(4H)-yl)propan-2-ol]
GI50 [1]: 28 µM
GI50 (NCIH460 cells): 18 µM
IC (TGI) (NCIH460 cells): 47 µM
CC50 (NCIH460 cells): 80 µM
GI50 (MDAMB-231/U 251): 34 µM
IC (TGI) (MDAMB-231/U 251): 59 µM
CC50 (MDAMB-231/U 251): 84 µM
GI50 (HCT116 cells): 32 µM
IC (TGI) (HCT116 cells): 57 µM
LC50 (concentration for 50% net cell kill relative to T0) (HCT116 cells): 82 µM

O=C(Cc1ccc(F)cc1)N1CCC(NCC(O)COc2cccc3[nH]c4ccccc4c23)CC1 (centres unmarked) [Example 66]
GI50 [1]: 18.3 µM
GI50 (NCIH460 cells): 14 µM
IC (TGI) (NCIH460 cells): 54 µM
CC50 (NCIH460 cells): 79 µM
GI50 (MDAMB-231/U 251): 15 µM
IC (TGI) (MDAMB-231/U 251): 48 µM
CC50 (MDAMB-231/U 251): 77 µM
GI50 (HCT116 cells): 26 µM
IC (TGI) (HCT116 cells): 49 µM
LC50 (concentration for 50% net cell kill relative to T0) (HCT116 cells): 84 µM

COc1cc(NCC(O)COc2cccc3[nH]c4ccccc4c23)cc(OC)c1OC (centres unmarked) [Example 8]
GI50 [1]: 8.6 µM
GI50 (NCIH460 cells): 15 µM
IC (TGI) (NCIH460 cells): 45 µM
CC50 (NCIH460 cells): 75 µM
GI50 (MDAMB-231/U 251): 5 µM
IC (TGI) (MDAMB-231/U 251): 50 µM
CC50 (MDAMB-231/U 251): > 100 µM
GI50 (HCT116 cells): 5.8 µM
IC (TGI) (HCT116 cells): 22 µM
LC50 (concentration for 50% net cell kill relative to T0) (HCT116 cells): 90 µM

Cc1csc(NC(=O)CN2CCN(CC(O)COc3cccc4[nH]c5ccccc5c34)CC2)n1 (centres unmarked) [Example 60, 2-{4-[3-(9H-carbazol-4-yloxy)-2-hydroxypropyl]-piperazin-1-yl}-N-(4-methyl-1,3-thiazol-2-yl)acetamide]
GI50 [1]: 25 µM
GI50 (NCIH460 cells): 24 µM
IC (TGI) (NCIH460 cells): 61 µM
CC50 (NCIH460 cells): 85 µM
GI50 (MDAMB-231/U 251): > 100 µM
IC (TGI) (MDAMB-231/U 251): > 100 µM
CC50 (MDAMB-231/U 251): > 100 µM
GI50 (HCT116 cells): 26 µM
IC (TGI) (HCT116 cells): 62 µM
LC50 (concentration for 50% net cell kill relative to T0) (HCT116 cells): 100 µM

OC(CNc1nc2ccccc2[nH]1)COc1cccc2[nH]c3ccccc3c12 (centres unmarked) [Example 19, 1-(1H-Benzimidazol-2-ylamino)-3-(9H-carbazol-4-yloxy)propan-2-ol]
GI50 [1]: 28.7 µM
GI50 (NCIH460 cells): 7.5 µM
IC (TGI) (NCIH460 cells): 35 µM
CC50 (NCIH460 cells): 70.5 µM
GI50 (MDAMB-231/U 251): 51.5 µM
IC (TGI) (MDAMB-231/U 251): 67 µM
CC50 (MDAMB-231/U 251): 85 µM
GI50 (HCT116 cells): 27 µM
IC (TGI) (HCT116 cells): 52 µM
LC50 (concentration for 50% net cell kill relative to T0) (HCT116 cells): 79 µM

OC(COc1cccc2[nH]c3ccccc3c12)CN1CCN(Cc2ccc(F)c(F)c2)CC1 (centres unmarked) [Example 31, 1-(9H-carbazol-4-yloxy)-3-[4-(3,4-difluorobenzyl)piperazin-1-yl]propan-2-ol]
GI50 [1]: 25.7 µM
GI50 (NCIH460 cells): 35 µM
IC (TGI) (NCIH460 cells): 90 µM
CC50 (NCIH460 cells): 65 µM
GI50 (MDAMB-231/U 251): 4 µM
IC (TGI) (MDAMB-231/U 251): 7 µM
CC50 (MDAMB-231/U 251): 10 µM
GI50 (HCT116 cells): 38 µM
IC (TGI) (HCT116 cells): 66 µM
LC50 (concentration for 50% net cell kill relative to T0) (HCT116 cells): 92 µM

OC(COc1cccc2[nH]c3ccccc3c12)CN1CCNCC1 (centres unmarked) [Example 3, 1-(9H-carbazol-4-yloxy)-3-piperazin-1-ylpropan-2-ol]
GI50 [1]: 29.7 µM
GI50 (NCIH460 cells): 27 µM
IC (TGI) (NCIH460 cells): 54 µM
CC50 (NCIH460 cells): 80 µM
GI50 (MDAMB-231/U 251): 55 µM
IC (TGI) (MDAMB-231/U 251): 77 µM
CC50 (MDAMB-231/U 251): > 100 µM
GI50 (HCT116 cells): 7 µM
IC (TGI) (HCT116 cells): 36 µM
LC50 (concentration for 50% net cell kill relative to T0) (HCT116 cells): 72 µM

O=[N+]([O-])c1ccc(CN2CCN(CC(O)COc3cccc4[nH]c5ccccc5c34)CC2)s1 (centres unmarked) [Example 27, 1-(9H-carbazol-4-yloxy)-3-{4-[(5-nitro-2-thienyl)methyl]piperazin-1-yl}propan-2-ol]
GI50 [1]: 25.9 µM
GI50 (NCIH460 cells): 45 µM
IC (TGI) (NCIH460 cells): 98 µM
CC50 (NCIH460 cells): > 100 µM
GI50 (MDAMB-231/U 251): 2.8 µM
IC (TGI) (MDAMB-231/U 251): 48 µM
CC50 (MDAMB-231/U 251): > 100 µM
GI50 (HCT116 cells): 30 µM
IC (TGI) (HCT116 cells): 60 µM
LC50 (concentration for 50% net cell kill relative to T0) (HCT116 cells): 90 µM

N#Cc1ccc(C(=O)N2CCC(NCC(O)COc3cccc4[nH]c5ccccc5c34)CC2)cn1 (centres unmarked) [Example 70, 1-(9H-carbazol-4-yloxy)-3-{[1-(6-cyanonicotine-3-carbonyl)piperidin-4-yl]amino}propan-2-ol]
GI50 [1]: 10.5 µM
GI50 (NCIH460 cells): 23 µM
IC (TGI) (NCIH460 cells): 50 µM
CC50 (NCIH460 cells): 78 µM
GI50 (MDAMB-231/U 251): 3.5 µM
IC (TGI) (MDAMB-231/U 251): 8.9 µM
CC50 (MDAMB-231/U 251): 57 µM
GI50 (HCT116 cells): 5 µM
IC (TGI) (HCT116 cells): 23 µM
LC50 (concentration for 50% net cell kill relative to T0) (HCT116 cells): 67 µM

Cc1cc(C)nc(NCC(O)COc2cccc3[nH]c4ccccc4c23)n1 (centres unmarked) [Example 15, 1-(9H-carbazol-4-yloxy)-3-[(4,6-dimethylpyrimidin-2-yl)amino]propan-2-ol]
GI50 [1]: 8 µM
GI50 (NCIH460 cells): > 100 µM
IC (TGI) (NCIH460 cells): > 100 µM
CC50 (NCIH460 cells): > 100 µM
GI50 (MDAMB-231/U 251): 8 µM
IC (TGI) (MDAMB-231/U 251): > 100 µM
CC50 (MDAMB-231/U 251): > 100 µM
GI50 (HCT116 cells): > 100 µM
IC (TGI) (HCT116 cells): > 100 µM
LC50 (concentration for 50% net cell kill relative to T0) (HCT116 cells): > 100 µM
